Columns and labels:
Aedes aegypti = experiment: Contact/ingestion efficacy test against Aedes aegypti larvae; format: in vivo; conditions: final concentration 12.5 μM, first-instar larvae, after 48 hours, 28° C., 80% RH, read-out: mortality rate against Aedes aegypti
Protocol: A DMSO solution of the compound of the present invention was diluted with water to obtain a 125 μM dilute solution. Ten first-instar larvae of Aedes aegypti were placed in each well of a 96-well microtiter plate, the above dilute liquid was added in a ratio of 1/10, and a test was conducted at a final concentration of 12.5 μM. The samples were incubated in a temperature-controlled room (28° C., 80% RH), and after 48 hours of treatment with the compound, the mortality of the larvae was investigated. The test was repeated.

Meloidogyne incognita [1] = experiment: Efficacy test against Meloidogyne incognita (in vitro test); conditions: 48 h, final concentration 50 ppm, second-instar larvae (L2), 2 days at 15° C., read-out: nematode mortality (still) rate against Meloidogyne incognita
Protocol: Two hundred μL of a suspension containing about 50 second-instar larvae (L2) of Meloidogyne incognita was dispensed into each well of a 96-well microplate, and 0.2 μL of a 10,000 ppm dimethylsulfoxide solution of the compound of the present invention was injected into each well to achieve a final concentration of 50 ppm. Mortality was investigated after 2 days treatment at 15° C., and the nematode mortality rate was calculated. […] The test was repeated.

Caenorhabditis elegans = experiment: Efficacy test against Caenorhabditis elegans (in vitro test); conditions: 48 h, final concentration 50 ppm, mixed instars, 2 days at 25° C., read-out: nematode mortality rate against Caenorhabditis elegans
Protocol: Two hundred μL of a suspension containing about 50 mixed instars of Caenorhabditis elegans was dispensed into each well of a 96-well microplate, and 0.2 μL of a 10,000 ppm dimethylsulfoxide solution of the compound of the present invention was injected into each well to achieve a final concentration of 50 ppm. Mortality was investigated after 2 days treatment at 25° C., and the nematode mortality rate was calculated. […] The test was repeated.

Spodoptera litura = experiment: Efficacy test against Spodoptera litura (cabbage leaf dip); format: in vivo; conditions: foliar, 144 h, cabbage leaves soaked 30 seconds, second-instar larvae, 6 days after larvae release, read-out: mortality rate against Spodoptera litura
Protocol: (§1) Five parts of the compound of the present invention, 93.6 parts of dimethylformamide and 1.4 parts of a polyoxyethylene alkyl aryl ether were mixed together and dissolved to obtain an emulsion (1) containing 5% of the active constituent.
The mortality rate was calculated using the following equation. Mortality rate (%)=(number of dead pests/number of test pests)×100
The emulsion (1) was diluted with water to achieve a concentration of the compound of the present invention of 125 ppm. Cabbage leaves were soaked in the diluted liquid for 30 seconds. These cabbage leaves were then placed in a Petri dish, and five second-instar larvae of Spodoptera litura were released into the dish. The Petri dish was placed in a temperature-controlled room at a temperature of 25° C. and a humidity of 60%. Mortality was investigated 6 days after larvae release, and the mortality rate was calculated. The test was repeated.

Mythimna separata = experiment: Efficacy test against Mythimna separata (treated artificial feed); conditions: in vivo
Outline: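 Second-instar larvae (2 per area) were given artificial feed mixed with a 5% active-constituent emulsion in DMF with polyoxyethylene alkyl aryl ether. They were kept sealed at 25 °C. Mortality (dead/tested ×100) and feed consumption were scored on day 5, with a compound-free emulsion as control.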

Ascaridia galli = experiment: Efficacy test against Ascaridia galli (in vitro, L3 larvae, MEC); conditions: activity against at least one type of target parasitic worm: Ascaridia galli L3 or Oesophagostomum dentatum L3/L4
Protocol: Using the gut-welling larval stages of two parasitic worms: namely, the third stage larvae (L3) of Ascaridia galli, and the third and fourth stage larvae (L3 and L4 respectively) of Oesophagostomum dentatum, the bioactivity of compounds of the present invention were investigated in vitro. When conducting these tests, DMSO solutions of the compounds of the present invention were prepared at various concentrations and incubated in the wells of a 96-well microtiter plate. Subsequently, 20 parasitic worm larvae were inoculated into each well. The bioactivity was determined by inspection under a microscope. The inspection under a microscope included evaluations of the mortality rate, injury, motility, development progression, and neutral red uptake by the larvae compared with a DMSO control.

Dirofilaria immitis = experiment: Efficacy test against Dirofilaria immitis (in vitro, Mf and L4); conditions: 10 μM, 72 hours, 37° C.
Description: Using the microfilarial stage and the fourth stage larvae (Mf and L4 respectively) of Dirofilaria immitis, the bioactivity of compounds of the present invention were investigated in vitro. The Mf was collected from the blood of infected dogs, and 500 microfilariae were inoculated into each well of a 96-well microtiter plate. The L4 larvae was obtained by allowing L3 larvae collected from infected mosquitoes to undergo a single molt, and 10 of these L4 larvae were inoculated into each well. Subsequently, a 10 mM DMSO solution of the compound of the present invention was prepared at various concentrations and added to each well in a ratio of 1/1,000, and a test was then conducted at a final concentration of 10 μM. Incubation was performed at 37° C. in an environment containing 5% carbon dioxide, and 72 hours after treatment with the compound, the mortality and growth inhibition were determined. The test was repeated.

Meloidogyne incognita [2] = experiment: Efficacy test against Meloidogyne incognita (clubroot formation suppression test on cucumber); format: in vivo; conditions: 125 ppm, 1 ml irrigated on culture medium with cucumber seeds; 200 eggs; after 14 days; relative to untreated sample
Protocol: as §1
The emulsion (I) was diluted with water to achieve a concentration of the compound of the present invention of 125 ppm. A plastic container with a diameter of 5 cm was filled with 7 g of a culture medium, and cucumber seeds were planted. The culture medium was irrigated with 1 ml of the above dilute liquid, and then inoculated with 200 eggs of Meloidogyne incognita. The container was then placed in a temperature-controlled room at a temperature of 25° C. and a humidity of 60%, and after 14 days, the clubroot formation suppression ratio (%) relative to an untreated sample was calculated from the number of clubroots formed on the roots of the cucumber plants. The test was repeated. Clubroot formation suppression ratio (%)=(1−Nt/Nc)×100
Nt: Total number of club roots formed in two treated samples after 14 days
Nc: Total number of club roots formed in two untreated samples after 14 days

Compound: O=C(Nc1ccc(C(F)(F)F)cc1)c1ccc(C(F)(F)F)cc1NS(=O)(=O)C(F)(F)F [a-9, 4-(trifluoromethyl)-N-[4-(trifluoromethyl)phenyl]-2-(trifluoromethylsulfonylamino)benzamide]
- mortality at 12.5 µM (Aedes aegypti): ≥ 80%
- mortality at 50 ppm (Meloidogyne incognita [1]): ≥ 80%
- mortality at 50 ppm (Caenorhabditis elegans): ≥ 80%
- mortality at 125 ppm (Spodoptera litura): ≥ 80%

Compound: O=C(Nc1ccc(F)c(C(F)(F)F)c1)c1ccc(OC(F)(F)F)cc1NS(=O)(=O)C(F)(F)F [a-25]
- mortality rate against Mythimna separata, or amount of feed consumed relative to control (Mythimna separata): 100%, or the amount of feed consumed was 10% or less
- MEC (minimum effective concentration) (Ascaridia galli): ≤ 25 µM

Compound: O=C(Nc1ccc(C(F)(F)F)cc1)c1ccc(OC(F)(F)F)cc1NS(=O)(=O)C(F)(F)F [a-26]
- mortality rate or growth inhibition rate (Dirofilaria immitis; fourth stage larvae (L4)): at least 90%
- mortality rate or growth inhibition rate (Dirofilaria immitis; microfilarial stage (Mf)): at least 90%
- mortality rate against Mythimna separata, or amount of feed consumed relative to control (Mythimna separata): 100%, or the amount of feed consumed was 10% or less

Compound: COC(=O)c1cc(Cl)c(Cl)cc1NC(=O)c1ccc(C(F)(F)F)cc1NS(=O)(=O)C(F)(F)F [a-80]
- mortality rate against Mythimna separata, or amount of feed consumed relative to control (Mythimna separata): 100%, or the amount of feed consumed was 10% or less
- clubroot formation suppression ratio against Meloidogyne incognita (Meloidogyne incognita [2]): ≥ 80%
